Assay results reported in PubChem BioAssay AID248 (DTP/NCI, 2004).
Where “and” joins values, the source holds several entries; their conditions need not be identical. Equal values may be shown once. Toxic doses and inconclusive results are not listed. No stated cut-off is given here; in the data, active means T/C of 150% or more; inactive means T/C below 125%.

System: L1210 leukemia ip in BDF1 mice, survival T/C
Test: NCI In Vivo Anticancer Drug Screen. Data for tumor model L1210 Leukemia (intraperitoneal) in B6D2F1 (BDF1) mice
Conditions: endpoint: mean survival time, higher = longer survival
Method in brief: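 Read-out is survival time, reported as the treated-group measurement over the vehicle-control measurement.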

[1] = dose: 100.0 mg/kg/injection, schedule: Q01DX009 (ip), vehicle: Klucel (hydroxypropylcellulose) (HPC)
[2] = dose: 100.0 mg/kg/injection, schedule: Q04DX003 (ip), vehicle: Klucel (hydroxypropylcellulose) (HPC)
[3] = dose: 200.0 mg/kg/injection, schedule: Q01DX009 (ip), vehicle: Klucel (hydroxypropylcellulose) (HPC)
[4] = dose: 200.0 mg/kg/injection, schedule: Q04DX003 (ip), vehicle: Klucel (hydroxypropylcellulose) (HPC)
[5] = dose: 400.0 mg/kg/injection, schedule: Q04DX003 (ip), vehicle: Klucel (hydroxypropylcellulose) (HPC)

Measured: T/C

CCOC(=O)C(NC=O)(C(=O)OCC)C(C)c1c[nH]c2ccccc12 (centres undefined)
inactive: dose: 100.0 mg/kg/injection, schedule: Q01DX001 (ip), vehicle: saline with Tween-80 93 % of control | dose: 100.0 mg/kg/injection, schedule: Q01DX009 (ip), vehicle: saline with Tween-80 102 % of control | dose: 200.0 mg/kg/injection, schedule: Q01DX001 (ip), vehicle: saline with Tween-80 94 % of control | dose: 200.0 mg/kg/injection, schedule: Q01DX009 (ip), vehicle: saline with Tween-80 98 % of control | dose: 400.0 mg/kg/injection, schedule: Q01DX001 (ip), vehicle: saline with Tween-80 100 % of control | dose: 400.0 mg/kg/injection, schedule: Q01DX009 (ip), vehicle: saline with Tween-80 94 % of control

COc1ccc(C(=O)OCc2ccccc2CN2CCOCC2)cc1
inactive: dose: 100.0 mg/kg/injection, schedule: Q04DX002 (ip), vehicle: Klucel (hydroxypropylcellulose) (HPC) 95 % of control | dose: 200.0 mg/kg/injection, schedule: Q04DX002 (ip), vehicle: Klucel (hydroxypropylcellulose) (HPC) 95 % of control | dose: 400.0 mg/kg/injection, schedule: Q04DX002 (ip), vehicle: Klucel (hydroxypropylcellulose) (HPC) 95 % of control

CN1C(=O)NC2ON=C(c3ccccc3)C2C1=O (centres undefined)
inactive: [1] 103 % of control | [2] 100 % of control | [3] 104 % of control | [4] 103 % of control | dose: 400.0 mg/kg/injection, schedule: Q01DX009 (ip), vehicle: Klucel (hydroxypropylcellulose) (HPC) 104 % of control | [5] 100 % of control

CC1(C)C2CCC1(C)C(NC(=O)N(CCCl)N=O)C2 (centres undefined)
inactive: dose: 4.0 mg/kg/injection, schedule: Q01DX001 (ip), vehicle: carboxymethylcellulose (CMC) 98 % of control | dose: 9.0 mg/kg/injection, schedule: Q01DX001 (ip), vehicle: carboxymethylcellulose (CMC) 96 % of control | dose: 18.0 mg/kg/injection, schedule: Q01DX001 (ip), vehicle: carboxymethylcellulose (CMC) 102 % of control | dose: 37.0 mg/kg/injection, schedule: Q01DX001 (ip), vehicle: carboxymethylcellulose (CMC) 112 % of control | dose: 75.0 mg/kg/injection, schedule: Q01DX001 (ip), vehicle: carboxymethylcellulose (CMC) 104 % of control | dose: 150.0 mg/kg/injection, schedule: Q01DX001 (ip), vehicle: carboxymethylcellulose (CMC) 106 % of control | dose: 200.0 mg/kg/injection, schedule: Q01DX001 (ip), vehicle: carboxymethylcellulose (CMC) 115 % of control | dose: 500.0 mg/kg/injection, schedule: Q01DX001 (ip), vehicle: carboxymethylcellulose (CMC) 115 % of control | dose: 1000.0 mg/kg/injection, schedule: Q01DX001 (ip), vehicle: carboxymethylcellulose (CMC) 121 % of control

O=C1CCCN1.O=C1CCCN1.[Br][Co][Br]
inactive: dose: 37.5 mg/kg/injection, schedule: Q01DX009 (ip), vehicle: saline 113 % of control | dose: 50.0 mg/kg/injection, schedule: Q04DX003 (ip), vehicle: saline 107 % of control | dose: 75.0 mg/kg/injection, schedule: Q01DX001 (ip), vehicle: saline 103 % of control | dose: 75.0 mg/kg/injection, schedule: Q01DX009 (ip), vehicle: saline 116 % of control | dose: 100.0 mg/kg/injection, schedule: Q04DX003 (ip), vehicle: saline 109 % of control | dose: 150.0 mg/kg/injection, schedule: Q01DX001 (ip), vehicle: saline 102 % of control | dose: 300.0 mg/kg/injection, schedule: Q01DX001 (ip), vehicle: saline 97 % of control

Cc1ccc(Cl)cc1NC(=O)Nc1ccccc1
inactive: dose: 0.75 mg/kg/injection, schedule: Q01DX009 (ip), vehicle: Klucel (hydroxypropylcellulose) (HPC) 92 % of control | dose: 1.5 mg/kg/injection, schedule: Q01DX009 (ip), vehicle: Klucel (hydroxypropylcellulose) (HPC) 90 % of control | dose: 3.0 mg/kg/injection, schedule: Q01DX009 (ip), vehicle: Klucel (hydroxypropylcellulose) (HPC) 94 % of control and 90 % of control | [2] 90 % of control | [4] 90 % of control | [5] 87 % of control

O=NN(CC(Cl)CN(N=O)C(=O)NC1CCCCC1)C(=O)NC1CCCCC1
inactive: dose: 8.0 mg/kg/injection, schedule: Q01DX001 (ip), vehicle: other 97 % of control | dose: 16.0 mg/kg/injection, schedule: Q01DX001 (ip), vehicle: other 108 % of control | dose: 31.0 mg/kg/injection, schedule: Q01DX001 (ip), vehicle: other 90 % of control | dose: 62.0 mg/kg/injection, schedule: Q01DX001 (ip), vehicle: other 100 % of control | dose: 125.0 mg/kg/injection, schedule: Q01DX001 (ip), vehicle: other 95 % of control | dose: 250.0 mg/kg/injection, schedule: Q01DX001 (ip), vehicle: other 92 % of control | dose: 500.0 mg/kg/injection, schedule: Q01DX001 (ip), vehicle: other 97 % of control | dose: 750.0 mg/kg/injection, schedule: Q01DX001 (ip), vehicle: other 102 % of control | dose: 1000.0 mg/kg/injection, schedule: Q01DX001 (ip), vehicle: other 102 % of control

CCCCNc1ncnc2c1nnn2C1OC(CO)C(O)C1O (centres undefined)
inactive: dose: 12.5 mg/kg/injection, schedule: Q04DX002 (ip), vehicle: Klucel (hydroxypropylcellulose) (HPC) 100 % of control | dose: 25.0 mg/kg/injection, schedule: Q04DX002 (ip), vehicle: Klucel (hydroxypropylcellulose) (HPC) 94 % of control | dose: 50.0 mg/kg/injection, schedule: Q04DX002 (ip), vehicle: Klucel (hydroxypropylcellulose) (HPC) 97 % of control

COc1cccc2c1C(=O)c1c(OC)c(C(Br)Br)cc(OC)c1C2=O
inactive: dose: 12.5 mg/kg/injection, schedule: Q01DX009 (ip), vehicle: other 99 % of control | dose: 25.0 mg/kg/injection, schedule: Q01DX009 (ip), vehicle: other 89 % of control | dose: 50.0 mg/kg/injection, schedule: Q01DX009 (ip), vehicle: other 89 % of control | dose: 100.0 mg/kg/injection, schedule: Q01DX009 (ip), vehicle: other 89 % of control | dose: 200.0 mg/kg/injection, schedule: Q01DX009 (ip), vehicle: other 87 % of control

O=c1[nH]c(=O)n(C2OC(CO)C(O)C2O)cc1O (centres undefined)
inactive: dose: 100.0 mg/kg/injection, schedule: Q01DX001 (ip), vehicle: water 92 % of control | dose: 200.0 mg/kg/injection, schedule: Q01DX001 (ip), vehicle: water 94 % of control | dose: 400.0 mg/kg/injection, schedule: Q01DX001 (ip), vehicle: water 103 % of control

CN(C)C(=O)OCC[N+](C)(C)CCCCCCCCCC[N+](C)(C)CCOC(=O)N(C)C
inactive: dose: 0.63 mg/kg/injection, schedule: Q01DX009 (ip), vehicle: saline 94 % of control | dose: 1.25 mg/kg/injection, schedule: Q01DX009 (ip), vehicle: saline 98 % of control | dose: 2.5 mg/kg/injection, schedule: Q01DX009 (ip), vehicle: saline 93 % of control | dose: 5.0 mg/kg/injection, schedule: Q04DX003 (ip), vehicle: saline 94 % of control

CCCCCCCCCC(=O)N/N=C/c1ccco1
inactive: [1] 87 % of control | [3] 99 % of control

COCCOC(=O)c1ccc(C(=N)N)cc1
inactive: dose: 100.0 mg/kg/injection, schedule: Q01DX001 (ip), vehicle: saline 106 % of control | dose: 200.0 mg/kg/injection, schedule: Q01DX001 (ip), vehicle: saline 100 % of control

CCCC#CC(=O)OCCCCC
inactive: dose: 100.0 mg/kg/injection, schedule: Q04DX002 (ip), vehicle: saline 108 % of control | dose: 200.0 mg/kg/injection, schedule: Q04DX002 (ip), vehicle: saline 94 % of control | dose: 400.0 mg/kg/injection, schedule: Q04DX002 (ip), vehicle: saline 105 % of control

CCCCCP(=O)(CCCCC)C1CCCC1
inactive: dose: 25.0 mg/kg/injection, schedule: Q04DX002 (ip), vehicle: saline with Tween-80 113 % of control | dose: 50.0 mg/kg/injection, schedule: Q04DX002 (ip), vehicle: saline with Tween-80 100 % of control | dose: 100.0 mg/kg/injection, schedule: Q04DX002 (ip), vehicle: saline with Tween-80 94 % of control and 90 % of control

CCOC(=O)C1=C(C)NC(C)=C(C(=O)OCC)C1c1cccc([N+](=O)[O-])c1
inactive: [2] 100 % of control | [4] 105 % of control | [5] 108 % of control
